Data set [1] is described as follows: Activity at gamma-secretase expressed in human SH-SY5Y cells assessed as inhibition of amyloid beta 42 production by HTRF immunoassay. The format is cell-based. Background: TR-FRET usually uses a lanthanide donor and a delayed reading to cut background.
Data set [2] can be described thus: Activity at gamma-secretase expressed in human SH-SY5Y cells assessed as inhibition of amyloid beta 40 production by HTRF immunoassay. The format is cell-based.
For the next data set, the target named is Gamma-secretase. Put plainly: Inhibition of gamma-secretase-mediated Notch deltaE cleavage in human HeLa cells by luciferase assay. The format is cell-based.
Data set [3] deals with Gamma-secretase (Homo sapiens) (UniProt Q96BI3+Q9NZ42+Q8WW43+P49768+Q92542+P49810). In words: Selectivity ratio, IC50 for human gamma-secretase-mediated Notch deltaE cleavage to IC50 for gamma-secretase-mediated amyloid beta 42 production. The format is protein-complex assay.
The subject of the next data set is Mus musculus. In words: Inhibition of Abeta42 production in APP-YAC transgenic mouse brain at 100 mg/kg, po after 6 hrs. The format is functional. As to conditions: read-out: INH.
Data set [4] is described as follows: Drug level in APP-YAC transgenic mouse brain at 100 mg/kg, po after 6 hrs. The format is ADME, organism-based. Details: dose 100 mg/kg, route oral. As to conditions: read-out: Drug uptake.
Data set [5] can be described thus: Drug level in APP-YAC transgenic mouse plasma at 100 mg/kg, po after 6 hrs. The format is ADME, organism-based. The arrangement: dose 100 mg/kg, route oral. The settings on record: read-out: Drug uptake.

Turning to `COc1ccc(N2CCN(c3nc(Nc4cc(C(C)(C)C)ccc4C)c4c(ncn4CC(F)(F)F)n3)CC2(C)C)cc1`, the IC50 – broadly, the concentration that inhibits the measured activity by half – amounted to 55 nM in data set [1] and 420 nM in data set [2].

As for `COc1ccc(NCCNc2nc(Nc3cc(C(C)(C)C)ccc3C)c3c(ncn3C)n2)cc1`, the 50% inhibitory concentration (IC50) in data set [1] came out at 500 nM; in data set [2] it was 1100 nM.

As to `COc1ccc(N2CCN(c3nc(Nc4cc(C(C)(C)C)ccc4C)c4c(n3)nc(C(F)(F)F)n4C)CC2(C)C)cc1`, the IC50 in data set [1] was 50 nM; in data set [2] it was 1000 nM; on Gamma-secretase it was over 50000 nM. Moreover, the Ratio IC50 in data set [3] is over 1000.

In the case of `COCCCCN1CCN(c2nc(Nc3cc(C(C)(C)C)ccc3C)c3c(ncn3C)n2)CC1`, the IC50 in data set [1] is 870 nM; in data set [2], 4700 nM.

In the case of `COc1ccc(N2CCN(c3nc(Nc4cc(C(C)(C)C)ccc4C)c4c(ncn4C)n3)CC2(C)C)cc1`, the figures for the 50% inhibitory concentration (IC50) (in data set [1]; in data set [2]; against Gamma-secretase) were 21 nM, 350 nM and over 50000 nM, respectively. For the same compound, the Ratio IC50 in data set [3] was over 2400. Also, in the data set on Mus musculus, the inhibition in vivo at 100 mg/kg was 73%. Further, the concentration at 6 h in data set [4] was found to be 7.8 µM; in data set [5], 23 µM.

With `Cc1ccc(C(C)(C)C)cc1Nc1nc(N2CCC(Oc3ccncc3)CC2)nc2ncn(C)c12`, the IC50 in data set [1] was 9.4 nM; in data set [2] it was 57 nM.

On to `Cc1ccc(C(C)(C)C)cc1Nc1nc(NCCc2ccncc2)nc2ncn(C)c12`, for which the IC50 in data set [1] came out at 36 nM; in data set [2], 250 nM.

Regarding `Cc1ccc(C(C)(C)C)cc1Nc1nc(N2CCN(Cc3ccncc3)CC2)nc2ncn(C)c12`, the IC50 was 12 nM in data set [1], 130 nM in data set [2] and 9100 nM against Gamma-secretase. Further, the Ratio IC50 in data set [3] stood at 760.

Consider `COc1ccc(N2CCN(c3nc(Nc4cc(C(C)(C)C)ccc4C)c4c(ncn4C)n3)CC2(C)C)cc1F`, for which the IC50 in data set [1] was found to be 21 nM; in data set [2], 270 nM.

In the case of `Cc1ccc(C(C)(C)C)cc1Nc1nc(N2CCC(c3ccncc3)CC2)nc2ncn(C)c12`, the IC50 in data set [1] is 350 nM; in data set [2], 1800 nM.

Regarding `COc1ccc(N2CCN(c3nc(Nc4cc(C(C)(C)C)ccc4C)c4c(ncn4C)n3)CC2)cc1`, the IC50 in data set [1] is 39 nM; in data set [2], 730 nM; against Gamma-secretase it was over 50000 nM. Also, the Ratio IC50 in data set [3] was over 1300.

For `COc1ccc(N2CCN(c3nc(Nc4cc(C(C)(C)C)ccc4C)c4[nH]cnc4n3)CC2(C)C)cc1`, the concentration for half-maximal inhibition (IC50) in data set [1] is 68 nM; in data set [2] it was 1000 nM.

Regarding `Cc1ccc(C(C)(C)C)cc1Nc1nc(N2CCC(n3ccnc3)CC2)nc2ncn(C)c12`, the IC50 in data set [1] amounted to 340 nM; in data set [2], 1600 nM.

Consider `COc1ccc(N2CCN(c3nc(Nc4cc(C(C)(C)C)ccc4C)c4ncn(C)c4n3)CC2(C)C)cc1`, for which the IC50 in data set [1] amounted to 130 nM; in data set [2], 2600 nM.

With `Cc1ccc(C(C)(C)C)cc1Nc1nc(NCCc2cnn(C)c2)nc2ncn(C)c12`, the IC50 was found to be 67 nM in data set [1], 400 nM in data set [2] and 22000 nM against Gamma-secretase. Further, the Ratio IC50 in data set [3] was found to be 330.

Regarding `Cc1ccc(C(C)(C)C)cc1Nc1nc(N2CCC(c3ccccc3)C2)nc2ncn(C)c12` (centres undefined), the IC50 in data set [1] came out at 54 nM; in data set [2] it was 630 nM.

Take `Cc1ccc(C(C)(C)C)cc1Nc1nc(N2CCC(Cc3ccncc3)CC2)nc2ncn(C)c12`: the IC50 came out at 30 nM in data set [1] and 310 nM in data set [2].

Turning to `COc1ccc(N2CCCN(c3nc(Nc4cc(C(C)(C)C)ccc4C)c4c(ncn4C)n3)CC2)cc1`, the half-inhibitory concentration (IC50) in data set [1] worked out at 380 nM; in data set [2] it was 4100 nM.

For `Cc1ccc(C(C)(C)C)cc1Nc1nc(N2CCN(CC3CCOCC3)CC2)nc2ncn(C)c12`, the IC50 in data set [1] turned out to be 910 nM; in data set [2], 8000 nM.

As for `COc1ccc(N2CCN(c3nc(Nc4cc(C(C)(C)C)ccc4C)c4c(n3)nc(C)n4C)CC2(C)C)cc1`, the IC50 came to 22 nM in data set [1], 160 nM in data set [2] and 9200 nM against Gamma-secretase. Besides, the Ratio IC50 in data set [3] is 420.

On to `COc1ccc(N2CCN(c3nc(Nc4cc(C(C)(C)C)ccc4C)c4[nH]ccc4n3)CC2(C)C)cc1`, for which the figures for the IC50 in data set [1] and in data set [2] were 750 nM and 3000 nM, respectively.

Take `CCc1ccc(N2CCN(c3nc(Nc4cc(C(C)(C)C)ccc4C)c4c(ncn4C)n3)CC2)cc1`: the IC50 is 810 nM in data set [1] and 3900 nM in data set [2].

As for `Cc1cc(OC2CCN(c3nc(Nc4cc(C(C)(C)C)ccc4C)c4c(ncn4C)n3)CC2)ncn1`, the results for the IC50 (in data set [1]; in data set [2]; against Gamma-secretase) were 16 nM, 120 nM and 13000 nM, respectively. Also, the Ratio IC50 in data set [3] came out at 810. Moreover, the inhibition in vivo at 100 mg/kg in the data set on Mus musculus is 69%. For the same compound, the concentration at 6 h in data set [4] is 7.8 µM; in data set [5], 27 µM.

As to `COc1ccc(N2CCN(c3nc(Nc4cc(C(C)(C)C)ccc4C)cc(OC)n3)CC2(C)C)cc1`, the IC50 came to 260 nM in data set [1] and 5700 nM in data set [2].

For `Cc1ccc(C(C)(C)C)cc1Nc1nc(-c2ccc(Cc3ccncc3)cc2)nc2ncn(C)c12`, the 50% inhibitory concentration (IC50) in data set [1] was 800 nM; in data set [2], 1100 nM.

On to `COc1ccc(N2CCN(c3nc(Nc4cc(C(C)(C)C)ccc4C)c4c(ncn4C(C)C)n3)CC2(C)C)cc1`, for which the figures for the half-inhibitory concentration (IC50) in data set [1] and in data set [2] were 50 nM and 350 nM, respectively.

`COc1ccc(N2CCN(c3nc(Nc4cc(C(C)(C)C)ccc4C)c4cccnc4n3)CC2(C)C)cc1`: the IC50 in data set [1] was determined as 210 nM; in data set [2], 3100 nM.

Source of the values: ChEMBL document CHEMBL1156324, “Purine derivatives as potent gamma-secretase modulators” (Bioorg Med Chem Lett, 2010).
